Measurements reported in patent publication US7786137B2, “Bicyclic derivatives as modulators of ion channels” (Vertex Pharmaceuticals Incorporated, priority 2005, dated 2010).

Target: NaV1.1 (Homo sapiens, UniProt P35498)
Assay: not given
Details: read-out: TTX IC50; cited from earlier work
In the case of `NC1=N[C@H](O)[C@H]2[C@H]3O[C@]4(O)O[C@@H]([C@@H](O)[C@@]2(N1)[C@@H]4O)[C@]3(O)CO` [TTX, tetrodotoxin], the IC50 is listed as 10 nM.

Target: T1, NaV1.3 (Homo sapiens, UniProt Q9NY46)
Assay: VIPR optical membrane potential assay, NaV1.3 inhibition
Format: cell-based
Parameters: expressed in transfected cells; host or cells: HEK293
Details: activity against NaV 1.3 channel
Target sequence in this assay (Q9NY46 whole entry): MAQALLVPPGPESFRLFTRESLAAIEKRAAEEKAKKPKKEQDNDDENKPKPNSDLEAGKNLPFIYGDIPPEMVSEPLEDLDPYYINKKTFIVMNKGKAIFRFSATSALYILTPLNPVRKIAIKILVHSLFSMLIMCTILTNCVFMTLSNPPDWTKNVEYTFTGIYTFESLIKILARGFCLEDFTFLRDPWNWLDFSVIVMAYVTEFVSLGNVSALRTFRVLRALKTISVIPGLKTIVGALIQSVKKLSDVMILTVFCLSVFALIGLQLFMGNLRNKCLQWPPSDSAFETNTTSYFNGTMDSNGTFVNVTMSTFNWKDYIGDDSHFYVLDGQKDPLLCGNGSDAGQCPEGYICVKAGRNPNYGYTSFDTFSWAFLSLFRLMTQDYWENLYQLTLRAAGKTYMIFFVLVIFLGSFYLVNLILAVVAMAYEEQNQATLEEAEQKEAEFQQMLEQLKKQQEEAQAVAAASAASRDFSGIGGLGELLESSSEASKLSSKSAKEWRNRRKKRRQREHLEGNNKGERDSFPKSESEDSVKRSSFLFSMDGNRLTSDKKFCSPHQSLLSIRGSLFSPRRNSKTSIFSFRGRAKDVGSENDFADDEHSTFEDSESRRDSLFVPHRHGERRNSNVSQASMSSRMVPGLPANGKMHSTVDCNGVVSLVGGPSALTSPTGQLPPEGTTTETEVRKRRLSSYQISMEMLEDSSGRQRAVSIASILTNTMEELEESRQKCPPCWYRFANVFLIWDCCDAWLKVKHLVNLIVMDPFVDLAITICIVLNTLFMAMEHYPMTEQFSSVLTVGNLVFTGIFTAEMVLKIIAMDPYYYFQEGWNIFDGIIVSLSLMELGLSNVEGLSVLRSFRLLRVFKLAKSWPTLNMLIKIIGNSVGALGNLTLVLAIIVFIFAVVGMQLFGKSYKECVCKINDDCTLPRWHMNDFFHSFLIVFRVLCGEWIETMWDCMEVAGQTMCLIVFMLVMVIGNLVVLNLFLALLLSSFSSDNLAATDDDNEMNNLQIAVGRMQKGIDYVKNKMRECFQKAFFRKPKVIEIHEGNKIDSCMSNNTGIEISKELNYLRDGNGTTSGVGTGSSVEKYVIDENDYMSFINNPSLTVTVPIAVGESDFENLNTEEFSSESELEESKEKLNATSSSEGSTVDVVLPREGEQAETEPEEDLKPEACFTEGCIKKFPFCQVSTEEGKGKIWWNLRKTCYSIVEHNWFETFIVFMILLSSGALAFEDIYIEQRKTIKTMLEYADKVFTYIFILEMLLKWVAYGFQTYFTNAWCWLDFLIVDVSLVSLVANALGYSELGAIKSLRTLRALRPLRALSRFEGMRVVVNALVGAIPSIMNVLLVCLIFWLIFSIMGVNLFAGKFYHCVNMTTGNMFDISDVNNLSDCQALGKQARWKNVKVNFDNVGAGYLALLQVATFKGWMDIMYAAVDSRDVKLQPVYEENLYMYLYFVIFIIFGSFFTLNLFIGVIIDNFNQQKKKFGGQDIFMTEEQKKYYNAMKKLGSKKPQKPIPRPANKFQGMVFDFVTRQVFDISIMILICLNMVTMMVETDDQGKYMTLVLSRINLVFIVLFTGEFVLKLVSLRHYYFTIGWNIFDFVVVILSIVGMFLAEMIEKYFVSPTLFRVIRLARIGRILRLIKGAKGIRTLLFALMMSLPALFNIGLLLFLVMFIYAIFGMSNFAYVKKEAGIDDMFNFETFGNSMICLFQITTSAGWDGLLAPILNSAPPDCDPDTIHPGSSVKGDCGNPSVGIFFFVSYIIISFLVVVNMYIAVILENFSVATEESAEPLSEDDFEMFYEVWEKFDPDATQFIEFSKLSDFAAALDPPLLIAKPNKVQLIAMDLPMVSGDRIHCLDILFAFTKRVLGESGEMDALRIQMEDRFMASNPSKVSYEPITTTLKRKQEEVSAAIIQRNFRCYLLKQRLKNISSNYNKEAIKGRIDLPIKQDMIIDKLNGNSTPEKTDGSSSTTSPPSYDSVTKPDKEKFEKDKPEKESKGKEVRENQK
Work on `C[C@@H](C(=O)N1CCc2cc(S(=O)(=O)Nc3ncns3)ccc21)n1ccc2c(F)cccc21` [Compound 142] yielded an IC50 of less than 2000 nM.
In the case of `COc1cccc(NCC(=O)N2CCc3cc(S(=O)(=O)Nc4nccs4)ccc32)c1` [Compound 165], the IC50 is reported as greater than 5000 nM.
Compound `O=C(c1ccc(Cl)c(Cl)c1)n1ccc2cc(S(=O)(=O)Nc3nccs3)ccc21` [Compound 126] has an IC50 of 2000 to 5000 nM.
With `O=C(Oc1ccccc1)N1CCc2cc(S(=O)(=O)Nc3nccs3)ccc21` [Compound 163] the IC50 was 2000 to 5000 nM.
`O=C(COc1ccnc2c(C(F)(F)F)cccc12)N1CCc2ccc(S(=O)(=O)Nc3nccs3)cc2C1` [Compound 140] showed an IC50 of less than 2000 nM.
Work on `CC(Oc1cc(Cl)ccc1Cl)C(=O)N1CCc2cc(S(=O)(=O)Nc3nccs3)ccc21` (stereo not shown) [Compound 21] yielded an IC50 of less than 2000 nM.
Work on `CC(C(=O)N1Cc2ccc(S(=O)(=O)Nc3ncns3)cc2C1)N1CCCc2cc(Cl)ccc21` (stereo not shown) [Compound 57] yielded an IC50 of less than 2000 nM.
Work on `C[C@@H](C(=O)N1CCc2cc(S(=O)(=O)Nc3ncns3)ccc21)n1ccc2ccccc21` [Compound 130] yielded an IC50 greater than 5000 nM.
Work on `O=C(COc1cccc(Cl)c1Cl)N1CCc2cc(S(=O)(=O)Nc3nccs3)ccc21` [Compound 67] yielded an IC50 of less than 2000 nM.
`CC(C)(C)c1ccc(OCC(=O)N2Cc3ccc(S(=O)(=O)Nc4nccs4)cc3C2)cc1` [Compound 155] gave an IC50 of less than 2000 nM.
For `O=C(c1ccccc1F)N1CCc2ccc(S(=O)(=O)Nc3nccs3)cc2C1` [Compound 123], the IC50 was 2000 to 5000 nM.
`O=C(COc1ccc(Cl)c(Cl)c1)n1ccc2cc(S(=O)(=O)Nc3nccs3)ccc21` [Compound 19] showed an IC50 greater than 5000 nM.
`C[C@H](C(=O)N1Cc2ccc(S(=O)(=O)Nc3ccc(Cl)nn3)cc2C1)N1CCCc2cc(Cl)ccc21` [Compound 146] showed an IC50 greater than 5000 nM.
`CC(Oc1ccccc1Cl)C(=O)N1CCc2cc(S(=O)(=O)Nc3nccs3)ccc21` (stereo not shown) [Compound 148] showed an IC50 of less than 2000 nM.
`O=C(c1cccc(Cl)c1)N1CCc2cc(S(=O)(=O)Nc3nccs3)ccc21` [Compound 50] showed an IC50 of less than 2000 nM.
In the case of `O=C(CCn1ccc2cc(Cl)ccc21)N1CCc2cc(S(=O)(=O)Nc3ncns3)ccc21` [Compound 172], the IC50 is reported as less than 2000 nM.
Work on `CN(CC(=O)N1CCc2cc(S(=O)(=O)Nc3nccs3)ccc21)c1ccncc1` [Compound 29] yielded an IC50 greater than 5000 nM.
For `C[C@H](C(=O)N1CCc2cc(S(=O)(=O)Nc3ncns3)ccc21)n1ccc2ccccc21` [Compound 202], the IC50 was less than 2000 nM.
In the case of `O=C(CN1CCC(F)(F)C1)N1CCCc2cc(S(=O)(=O)Nc3nccs3)ccc21` [Compound 169], the IC50 is reported as greater than 5000 nM.
`O=C(COc1ccccc1Cl)N1CCc2cc(S(=O)(=O)Nc3nccs3)ccc21` [Compound 2] gave an IC50 of less than 2000 nM.
With `COc1ccc(CC(=O)N2Cc3ccc(S(=O)(=O)Nc4nccs4)cc3C2)cc1` [Compound 193] the IC50 was 2000 to 5000 nM.
Compound `O=C(ON1Cc2ccc(S(=O)(=O)Nc3nccs3)cc2C1)c1ccc(Cl)cc1` [Compound 102] has an IC50 of less than 2000 nM.
`Cc1ccc(C(=O)n2ccc3cc(S(=O)(=O)Nc4nccs4)ccc32)cc1Cl` [Compound 191] gave an IC50 greater than 5000 nM.
`O=C(CN1CCCc2ccccc21)N1CCCc2cc(S(=O)(=O)Nc3nccs3)ccc21` [Compound 101] showed an IC50 greater than 5000 nM.
`C[C@H](C(=O)N1CCc2cc(S(=O)(=O)Nc3nccs3)ccc21)n1ccc2ccccc21` [Compound 87] showed an IC50 of less than 2000 nM.
With `O=C(COc1ccc(OC(F)(F)F)cc1)N1Cc2ccc(S(=O)(=O)Nc3nccs3)cc2C1` [Compound 84] the IC50 was less than 2000 nM.
With `Cc1ccc2c(c1)CCCN2CC(=O)N1CCc2cc(S(=O)(=O)Nc3nccs3)ccc21` [Compound 64] the IC50 was 2000 to 5000 nM.
`O=C(c1c(F)cc(F)cc1F)N1CCCc2cc(S(=O)(=O)Nc3nccs3)ccc21` [Compound 76] showed an IC50 greater than 5000 nM.
Compound `CC(C)(C)c1ccc(OCC(=O)N2CCc3ccc(S(=O)(=O)Nc4nccs4)cc3C2)cc1` [Compound 150] has an IC50 greater than 5000 nM.
For `O=C(COc1ccccc1)N1CCc2cc(S(=O)(=O)Nc3nccs3)ccc21` [Compound 112], the IC50 was less than 2000 nM.
`Cc1nnc(NS(=O)(=O)c2ccc3c(c2)CN(C(=O)COc2ccnc4c(C(F)(F)F)cccc24)CC3)s1` [Compound 152] showed an IC50 greater than 5000 nM.
With `O=C(CN1CCCc2cc(Cl)ccc21)N1CCc2cc(S(=O)(=O)Nc3ncns3)ccc21` [Compound 205] the IC50 was less than 2000 nM.
Work on `CCc1nnc(NS(=O)(=O)c2ccc3c(c2)CN(C(=O)[C@@H](C)n2ccc4c(F)cccc42)C3)s1` [Compound 105] yielded an IC50 of 2000 to 5000 nM.
For `O=C(CN1CCc2ccc(F)cc2C1)N1CCc2cc(S(=O)(=O)Nc3nccs3)ccc21` [Compound 137], the IC50 was less than 2000 nM.
In the case of `CC(C(=O)N1CCc2cc(S(=O)(=O)Nc3nccs3)ccc21)n1ccc2ccccc21` (stereo not shown) [Compound 204], the IC50 is reported as less than 2000 nM.
`O=C(c1ccc(F)cc1F)N1CCc2cc(S(=O)(=O)Nc3ncns3)ccc21` [Compound 118] showed an IC50 greater than 5000 nM.
Compound `O=C(c1ccccc1C(F)(F)F)n1ccc2cc(S(=O)(=O)Nc3nccs3)ccc21` [Compound 176] has an IC50 of 2000 to 5000 nM.
In the case of `COc1ccc(F)cc1C(=O)n1ccc2cc(S(=O)(=O)Nc3nccs3)ccc21` [Compound 110], the IC50 is reported as 2000 to 5000 nM.
With `O=C(COc1ccccc1)N1CCCc2cc(S(=O)(=O)Nc3nccs3)ccc21` [Compound 113] the IC50 was 2000 to 5000 nM.

Target: NaV1.6 (Homo sapiens, UniProt Q9UQD0)
Assay: not given
Details: read-out: TTX IC50; cited from earlier work
For `NC1=N[C@H](O)[C@H]2[C@H]3O[C@]4(O)O[C@@H]([C@@H](O)[C@@]2(N1)[C@@H]4O)[C@]3(O)CO` [TTX, tetrodotoxin], the IC50 is listed as 6 nM.

Target: NaV1.8 (Homo sapiens, UniProt Q9Y5Y9)
Assay: not given
Details: read-out: TTX IC50; cited from earlier work
For `NC1=N[C@H](O)[C@H]2[C@H]3O[C@]4(O)O[C@@H]([C@@H](O)[C@@]2(N1)[C@@H]4O)[C@]3(O)CO` [TTX, tetrodotoxin], the IC50 is listed as greater than 50000 nM.

Target: T1, NaV1.3
Assay: not given
Details: read-out: TTX IC50; cited from earlier work
Target sequence in this assay (Q9NY46 whole entry, looked up): as the sequence (Q9NY46 whole entry) above
In the case of `NC1=N[C@H](O)[C@H]2[C@H]3O[C@]4(O)O[C@@H]([C@@H](O)[C@@]2(N1)[C@@H]4O)[C@]3(O)CO` [TTX, tetrodotoxin], the IC50 is given as 15 nM.

System: not given
Assay: not given
Details: neuropathic pain, modest efficacy; cited from earlier work
For `NCC1(CC(=O)O)CCCCC1` [Gabapentin], the “patients in whom it works” value is given as 60%.

Target: NaV1.2 (Homo sapiens, UniProt Q99250)
Sequence (Q99250 whole entry, looked up): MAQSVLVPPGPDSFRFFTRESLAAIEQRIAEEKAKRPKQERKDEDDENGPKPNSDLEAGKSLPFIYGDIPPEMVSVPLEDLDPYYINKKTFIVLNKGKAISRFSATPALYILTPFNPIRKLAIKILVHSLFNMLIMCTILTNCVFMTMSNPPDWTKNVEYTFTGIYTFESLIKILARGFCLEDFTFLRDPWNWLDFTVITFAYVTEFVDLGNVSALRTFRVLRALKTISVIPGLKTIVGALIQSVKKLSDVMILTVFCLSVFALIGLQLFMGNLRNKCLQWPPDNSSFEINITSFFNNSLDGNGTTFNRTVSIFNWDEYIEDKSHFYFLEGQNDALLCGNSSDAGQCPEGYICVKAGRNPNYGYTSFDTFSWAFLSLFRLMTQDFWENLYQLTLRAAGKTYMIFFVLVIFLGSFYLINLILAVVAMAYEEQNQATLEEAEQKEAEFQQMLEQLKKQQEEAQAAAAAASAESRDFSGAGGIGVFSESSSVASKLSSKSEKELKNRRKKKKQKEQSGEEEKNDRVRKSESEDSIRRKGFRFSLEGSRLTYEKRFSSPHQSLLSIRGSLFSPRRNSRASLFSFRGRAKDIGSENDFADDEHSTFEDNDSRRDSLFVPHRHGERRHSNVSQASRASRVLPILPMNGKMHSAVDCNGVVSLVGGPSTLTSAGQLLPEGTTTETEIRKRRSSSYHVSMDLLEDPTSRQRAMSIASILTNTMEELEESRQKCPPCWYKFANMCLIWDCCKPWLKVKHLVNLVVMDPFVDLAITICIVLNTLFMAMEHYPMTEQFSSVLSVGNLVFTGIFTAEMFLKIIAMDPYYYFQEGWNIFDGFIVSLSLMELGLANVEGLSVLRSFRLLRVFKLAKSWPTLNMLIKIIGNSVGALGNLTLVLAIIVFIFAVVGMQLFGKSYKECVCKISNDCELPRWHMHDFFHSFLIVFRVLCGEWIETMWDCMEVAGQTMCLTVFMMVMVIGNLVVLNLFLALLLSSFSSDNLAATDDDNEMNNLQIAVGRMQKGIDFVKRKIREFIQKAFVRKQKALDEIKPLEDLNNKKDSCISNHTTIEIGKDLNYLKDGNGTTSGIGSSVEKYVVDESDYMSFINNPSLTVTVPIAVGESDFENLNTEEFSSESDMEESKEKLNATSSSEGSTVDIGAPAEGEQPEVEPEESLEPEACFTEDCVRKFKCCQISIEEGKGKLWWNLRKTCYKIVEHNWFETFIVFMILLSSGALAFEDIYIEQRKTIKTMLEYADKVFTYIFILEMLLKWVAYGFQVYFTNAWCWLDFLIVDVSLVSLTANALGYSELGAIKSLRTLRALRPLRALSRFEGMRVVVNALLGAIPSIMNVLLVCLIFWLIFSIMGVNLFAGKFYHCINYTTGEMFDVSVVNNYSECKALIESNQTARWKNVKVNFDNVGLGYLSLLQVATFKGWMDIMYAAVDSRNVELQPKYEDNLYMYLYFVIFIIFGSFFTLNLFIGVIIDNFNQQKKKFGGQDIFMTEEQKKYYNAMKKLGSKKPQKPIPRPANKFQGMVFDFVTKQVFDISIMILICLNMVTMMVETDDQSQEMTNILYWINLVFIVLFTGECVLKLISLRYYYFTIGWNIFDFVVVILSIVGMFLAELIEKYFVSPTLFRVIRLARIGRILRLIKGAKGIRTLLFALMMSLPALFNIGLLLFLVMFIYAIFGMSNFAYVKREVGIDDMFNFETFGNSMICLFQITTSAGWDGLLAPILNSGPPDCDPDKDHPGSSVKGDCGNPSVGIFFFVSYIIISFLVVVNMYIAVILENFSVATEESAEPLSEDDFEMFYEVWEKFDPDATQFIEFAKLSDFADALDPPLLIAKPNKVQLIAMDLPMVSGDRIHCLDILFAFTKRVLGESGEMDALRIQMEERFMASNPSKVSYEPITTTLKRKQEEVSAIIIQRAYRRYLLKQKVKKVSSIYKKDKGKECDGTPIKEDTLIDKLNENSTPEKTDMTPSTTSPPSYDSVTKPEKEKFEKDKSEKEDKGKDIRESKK
Assay: not given
Details: read-out: TTX IC50; cited from earlier work
In the case of `NC1=N[C@H](O)[C@H]2[C@H]3O[C@]4(O)O[C@@H]([C@@H](O)[C@@]2(N1)[C@@H]4O)[C@]3(O)CO` [TTX, tetrodotoxin], the IC50 is listed as 10 nM.

Target: NaV1.9 (Homo sapiens, UniProt Q9UI33)
Assay: not given
Details: read-out: TTX IC50; cited from earlier work
For `NC1=N[C@H](O)[C@H]2[C@H]3O[C@]4(O)O[C@@H]([C@@H](O)[C@@]2(N1)[C@@H]4O)[C@]3(O)CO` [TTX, tetrodotoxin], the IC50 is listed as 1000 nM.
